{"source": "ChEMBL document CHEMBL5518200", "about": "“Heterocyclic-Modified Imidazoquinoline Derivatives: Selective TLR7 Agonist Regulates Tumor Microenvironment against Melanoma” (J Med Chem, 2024)", "key": {"Toll-like receptor 7 [1]": {"target": "T1, Toll-like receptor 7 (Homo sapiens, UniProt Q9NYK1)", "T1 sequence (Q9NYK1 whole entry)": "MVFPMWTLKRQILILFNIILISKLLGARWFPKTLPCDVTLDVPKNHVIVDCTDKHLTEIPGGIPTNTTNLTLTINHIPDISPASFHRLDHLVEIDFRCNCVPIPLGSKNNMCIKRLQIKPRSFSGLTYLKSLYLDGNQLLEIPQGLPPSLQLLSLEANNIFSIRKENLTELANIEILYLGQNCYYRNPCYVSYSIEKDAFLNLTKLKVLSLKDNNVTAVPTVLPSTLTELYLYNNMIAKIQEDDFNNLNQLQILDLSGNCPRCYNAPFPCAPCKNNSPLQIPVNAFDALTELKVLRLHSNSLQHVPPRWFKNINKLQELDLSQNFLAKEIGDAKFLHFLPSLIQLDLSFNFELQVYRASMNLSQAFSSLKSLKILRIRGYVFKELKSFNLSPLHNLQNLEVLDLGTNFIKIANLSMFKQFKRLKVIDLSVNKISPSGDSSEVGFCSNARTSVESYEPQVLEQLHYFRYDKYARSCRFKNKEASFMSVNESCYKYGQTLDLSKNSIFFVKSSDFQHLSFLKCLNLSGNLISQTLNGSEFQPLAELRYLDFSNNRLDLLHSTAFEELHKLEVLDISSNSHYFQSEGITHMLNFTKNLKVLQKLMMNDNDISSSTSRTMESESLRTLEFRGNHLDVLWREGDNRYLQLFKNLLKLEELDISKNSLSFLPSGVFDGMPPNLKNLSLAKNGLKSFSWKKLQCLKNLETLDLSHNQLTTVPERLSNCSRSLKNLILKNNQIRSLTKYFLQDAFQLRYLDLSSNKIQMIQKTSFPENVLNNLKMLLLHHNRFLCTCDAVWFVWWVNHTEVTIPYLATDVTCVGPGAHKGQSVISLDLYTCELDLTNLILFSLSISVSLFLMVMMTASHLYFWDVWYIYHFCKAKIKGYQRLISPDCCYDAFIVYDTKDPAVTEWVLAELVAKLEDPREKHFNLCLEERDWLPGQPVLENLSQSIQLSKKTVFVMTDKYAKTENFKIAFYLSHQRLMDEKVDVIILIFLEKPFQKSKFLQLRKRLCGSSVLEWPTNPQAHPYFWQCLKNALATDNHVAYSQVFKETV", "assay": "Agonist activity at TLR7 in HEK-Blue hTLR7 cells expressing NF-kappaB/AP-1 inducible SEAP assessed as increase in SEAP activity incubated for 24 hrs by QUANTI-Blue assay", "type": "cell-based"}, "Toll-like receptor 7 [2]": {"target": "T2, Toll-like receptor 7 (Mus musculus, UniProt P58681)", "T2 sequence (P58681 whole entry)": "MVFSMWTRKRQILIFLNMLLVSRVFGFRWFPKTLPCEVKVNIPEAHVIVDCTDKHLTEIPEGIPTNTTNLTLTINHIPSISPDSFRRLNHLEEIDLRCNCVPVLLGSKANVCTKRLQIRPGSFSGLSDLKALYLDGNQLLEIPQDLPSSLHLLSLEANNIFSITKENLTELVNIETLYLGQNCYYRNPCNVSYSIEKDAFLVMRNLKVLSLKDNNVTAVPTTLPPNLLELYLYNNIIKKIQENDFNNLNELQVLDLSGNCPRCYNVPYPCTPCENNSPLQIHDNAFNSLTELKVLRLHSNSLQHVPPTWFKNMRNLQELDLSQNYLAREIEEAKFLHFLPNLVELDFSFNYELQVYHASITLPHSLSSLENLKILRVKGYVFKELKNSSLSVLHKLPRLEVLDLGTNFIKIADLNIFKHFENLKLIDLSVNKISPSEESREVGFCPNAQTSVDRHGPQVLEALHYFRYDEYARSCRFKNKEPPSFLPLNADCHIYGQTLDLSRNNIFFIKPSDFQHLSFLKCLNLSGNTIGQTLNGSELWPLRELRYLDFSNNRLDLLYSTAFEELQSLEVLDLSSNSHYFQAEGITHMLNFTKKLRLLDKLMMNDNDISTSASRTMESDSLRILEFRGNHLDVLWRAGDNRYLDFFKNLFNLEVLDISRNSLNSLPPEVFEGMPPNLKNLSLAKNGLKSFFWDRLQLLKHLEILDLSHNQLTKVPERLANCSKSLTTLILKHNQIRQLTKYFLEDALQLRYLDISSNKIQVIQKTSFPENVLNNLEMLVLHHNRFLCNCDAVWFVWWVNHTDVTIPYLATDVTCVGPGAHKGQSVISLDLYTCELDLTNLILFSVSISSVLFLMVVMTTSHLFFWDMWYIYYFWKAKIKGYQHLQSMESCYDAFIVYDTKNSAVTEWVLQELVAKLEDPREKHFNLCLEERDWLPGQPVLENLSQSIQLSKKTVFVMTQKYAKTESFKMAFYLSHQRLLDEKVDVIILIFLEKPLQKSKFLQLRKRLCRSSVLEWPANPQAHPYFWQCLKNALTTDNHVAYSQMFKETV", "assay": "Binding affinity to recombinant mouse TLR7 assessed as dissociation constant by SPR analysis"}, "L929": {"system": "L929", "assay": "Cytotoxicity against mouse L929 cells assessed as reduction in cell viability upto 100 uM incubated for 24 hrs by CCK-8 assay", "type": "toxicity, cell-based", "settings": "l929, 24 h"}, "[3]": {"assay": "Toxicity in C57BL/6J mouse implanted with mouse B16-F10 cells assessed as pathological changes in heart at 25 mg/kg, ip administered every 2 days starting from 3 days post tumor inoculation and measured on day 18 by H and E staining based analysis", "type": "organism-based", "settings": "in vivo, 360 h, time 15 day"}, "[4]": {"assay": "Toxicity in C57BL/6J mouse implanted with mouse B16-F10 cells assessed as behavioral abnormalities at 25 mg/kg, ip administered every 2 days starting from 3 days post tumor inoculation and measured on day 18", "type": "organism-based", "settings": "in vivo, 360 h, time 15 day"}, "[5]": {"assay": "Toxicity in C57BL/6J mouse implanted with mouse B16-F10 cells assessed as pathological changes in kidney at 25 mg/kg, ip administered every 2 days starting from 3 days post tumor inoculation and measured on day 18 by H and E staining based analysis", "type": "organism-based", "settings": "in vivo, 360 h, time 15 day"}, "[6]": {"assay": "Toxicity in C57BL/6J mouse implanted with mouse B16-F10 cells assessed as splenomegaly at 25 mg/kg, ip administered every 2 days starting from 3 days post tumor inoculation and measured on day 18", "type": "organism-based", "settings": "in vivo, 360 h, time 15 day"}, "[7]": {"assay": "Toxicity in C57BL/6J mouse implanted with mouse B16-F10 cells assessed as increase in systemic IL-6 secretion in serum at 25 mg/kg, ip administered every 2 days starting from 3 days post tumor inoculation and measured on day 18 by ELISA", "type": "organism-based", "settings": "in vivo, 360 h, time 15 day"}, "[8]": {"assay": "Toxicity in C57BL/6J mouse implanted with mouse B16-F10 cells assessed as pathological changes in liver at 25 mg/kg, ip administered every 2 days starting from 3 days post tumor inoculation and measured on day 18 by H and E staining based analysis", "type": "organism-based", "settings": "in vivo, 360 h, time 15 day"}, "[9]": {"assay": "Toxicity in C57BL/6J mouse implanted with mouse B16-F10 cells assessed as increase in systemic TNF-alpha secretion in serum at 25 mg/kg, ip administered every 2 days starting from 3 days post tumor inoculation and measured on day 18 by ELISA", "type": "organism-based", "settings": "in vivo, 360 h, time 15 day"}, "[10]": {"assay": "Toxicity in C57BL/6J mouse implanted with mouse B16-F10 cells assessed as reduction in body weight at 2.5 to 20 mg/kg, ip administered every 2 days starting from 3 days post tumor inoculation and measured on day 18", "type": "organism-based", "settings": "in vivo, 360 h, dose 2.5-20 mg/kg, time 15 day"}, "[11]": {"assay": "Toxicity in C57BL/6J mouse implanted with mouse B16-F10 cells assessed as physical abnormalities at 25 mg/kg, ip administered every 2 days starting from 3 days post tumor inoculation and measured on day 18", "type": "organism-based", "settings": "in vivo, 360 h, time 15 day"}, "L02": {"system": "L02", "assay": "Cytotoxicity against human L02 cells assessed as reduction in cell viability upto 100 uM incubated for 24 hrs by CCK-8 assay", "type": "toxicity, cell-based", "settings": "l02, 24 h"}, "B16-F10": {"system": "B16-F10", "assay": "Antitumor immunity against mouse B16-F10 cells implanted in C57BL/6J mouse assessed as increase in intracellular granzyme B level in tumor CD8-positive T cells at 25 mg/kg, ip administered every 2 days starting from 3 days post tumor inoculation and measured on day 18 by flow cytometry analysis (reference value: 14.5%)", "type": "functional", "settings": "time 15 day"}, "Peritoneal macrophage [12]": {"system": "Peritoneal macrophage", "assay": "Induction of M1 like macrophage polarization in mouse peritoneal macrophages assessed as decrease in CD206-positive cells at 10 ug/ml incubated for 24 hrs by flow cytometry analysis (reference value: 79%)", "type": "functional", "set-up": "scale not given: the % may be the effect or the level left", "settings": "dose 10 µg/ml"}, "Peritoneal macrophage [13]": {"system": "Peritoneal macrophage", "assay": "Induction of M1 like macrophage polarization in mouse peritoneal macrophages assessed as increase in CD86-positive cells at 10 ug/ml incubated for 24 hrs by flow cytometry analysis (reference value: 18.4%)", "type": "functional", "settings": "dose 10 µg/ml"}}, "note": "pEC50, pKd: −log10 of the molar value."}
{"smiles": "CCCCc1nc2c(N)nc3ccccc3c2n1Cc1ccc(OC)cc1", "values": [{"measurement": "pEC50", "setting": "Toll-like receptor 7 [1]", "result": "< 4.70"}]}
{"smiles": "CCCc1nc2c(N)nc3ccccc3c2n1Cc1ccc(C(=O)OC)cc1", "values": [{"measurement": "pEC50", "setting": "Toll-like receptor 7 [1]", "result": "< 4.70"}]}
{"smiles": "CCCCc1nc2c(N)nc3ccccc3c2n1Cc1ccc(C(=O)NC)cc1", "values": [{"measurement": "pEC50", "setting": "Toll-like receptor 7 [1]", "result": 6.65}]}
{"smiles": "CCCCc1nc2c(N)nc3ccccc3c2n1CC1CCOC1", "note": "(stereo not given)", "values": [{"measurement": "pKd", "setting": "Toll-like receptor 7 [2]", "result": 7.33}, {"measurement": "Activity", "setting": "L929", "result": "Non-Toxic"}, {"measurement": "Activity", "setting": "[3]", "result": "Non-Toxic"}, {"measurement": "Activity", "setting": "[4]", "result": "Non-Toxic"}, {"measurement": "Activity", "setting": "[5]", "result": "Non-Toxic"}, {"measurement": "Activity", "setting": "[6]", "result": "Non-Toxic"}, {"measurement": "Activity", "setting": "[7]", "result": "Non-Toxic"}, {"measurement": "Activity", "setting": "[8]", "result": "Non-Toxic"}, {"measurement": "Activity", "setting": "[9]", "result": "Non-Toxic"}, {"measurement": "Activity", "setting": "[10]", "result": "Non-Toxic"}, {"measurement": "Activity", "setting": "[11]", "result": "Non-Toxic"}, {"measurement": "Activity", "setting": "L02", "result": "Non-Toxic"}]}
{"smiles": "CCCCCc1nc2c(N)nc3ccccc3c2n1CC1CCOC1", "note": "(stereo not given)", "values": [{"measurement": "pEC50", "setting": "Toll-like receptor 7 [1]", "result": 6.28}]}
{"smiles": "CCCc1nc2c(N)nc3ccccc3c2n1CC1CCOC1", "note": "(stereo not given)", "values": [{"measurement": "pEC50", "setting": "Toll-like receptor 7 [1]", "result": 5.48}]}
{"smiles": "CCOCc1nc2c(N)nc3ccccc3c2n1CC(C)(C)O", "note": "[RESIQUIMOD]", "values": [{"measurement": "Activity", "setting": "B16-F10", "result": 49.9, "unit": "%"}, {"measurement": "Activity", "setting": "Peritoneal macrophage [12]", "result": 29.8, "unit": "%"}, {"measurement": "Activity", "setting": "Peritoneal macrophage [13]", "result": 65.8, "unit": "%"}]}
